Experimental data from article PMC5078040 (Oncotarget, 2016).

How the values were obtained:
AAK1 = target: T1, AAK1 (Homo sapiens, UniProt Q2M2I8); assay: KinomeScan; type: binding; details: 1uM
T1 construct: purchased DiscoveRx KINOMEscan

ADCK4 = target: T2, ADCK4 (Homo sapiens, UniProt Q96D53); assay: KinomeScan; type: binding; details: 1uM
T2 construct: purchased DiscoveRx KINOMEscan

AMPK-alpha2 = target: T3, AMPK-alpha2 (Homo sapiens, UniProt P54646); assay: KinomeScan; type: binding; details: 1uM
T3 construct: purchased DiscoveRx KINOMEscan

AURKC = target: T4, AURKC (Homo sapiens, UniProt Q9UQB9); assay: KinomeScan; type: binding; details: 1uM
T4 construct: purchased DiscoveRx KINOMEscan

BRSK1 = target: T5, BRSK1 (Homo sapiens, UniProt Q8TDC3); assay: KinomeScan; type: binding; details: 1uM
T5 construct: purchased DiscoveRx KINOMEscan

BUB1 = target: T6, BUB1 (Homo sapiens, UniProt O43683); assay: KinomeScan; type: binding; details: 1uM
T6 construct: purchased DiscoveRx KINOMEscan

CAMK1 = target: T7, CAMK1 (Homo sapiens, UniProt Q14012); assay: KinomeScan; type: binding; details: 1uM
T7 construct: purchased DiscoveRx KINOMEscan

CASK = target: T8, CASK (Homo sapiens, UniProt O14936); assay: KinomeScan; type: binding; details: 1uM
T8 construct: purchased DiscoveRx KINOMEscan

CDK8 = target: T9, CDK8 (Homo sapiens, UniProt P49336); assay: KinomeScan; type: binding; details: 1uM
T9 construct: purchased DiscoveRx KINOMEscan

CHEK1 = target: T10, CHEK1 (Homo sapiens, UniProt O14757); assay: KinomeScan; type: binding; details: 1uM
T10 construct: purchased DiscoveRx KINOMEscan

CLK1 = target: T11, CLK1 (Homo sapiens, UniProt P49759); assay: KinomeScan; type: binding; details: 1uM
T11 construct: purchased DiscoveRx KINOMEscan

CLK4 = target: T12, CLK4 (Homo sapiens, UniProt Q9HAZ1); assay: KinomeScan; type: binding; details: 1uM
T12 construct: purchased DiscoveRx KINOMEscan

DCAMKL3 = target: T13, DCAMKL3 (Homo sapiens, UniProt Q9C098); assay: KinomeScan; type: binding; details: 1uM
T13 construct: purchased DiscoveRx KINOMEscan

FGFR3 = target: T14, FGFR3 (Homo sapiens, UniProt P22607); assay: KinomeScan; type: binding; details: 1uM
T14 construct: purchased DiscoveRx KINOMEscan

FLT1 = target: T15, FLT1 (Homo sapiens, UniProt P17948); assay: KinomeScan; type: binding; details: 1uM
T15 construct: purchased DiscoveRx KINOMEscan

FRK = target: T16, FRK (Homo sapiens, UniProt P42685); assay: KinomeScan; type: binding; details: 1uM
T16 construct: purchased DiscoveRx KINOMEscan

JNK1 = target: T17, JNK1 (Homo sapiens, UniProt P45983); assay: KinomeScan; type: binding; details: 1uM
T17 construct: purchased DiscoveRx KINOMEscan

KIT(D816V) = target: T18, KIT(D816V) (Homo sapiens, UniProt P10721, D816V); assay: KinomeScan; type: binding; details: 1uM
T18 construct: purchased DiscoveRx KINOMEscan

KIT-autoinhibited = target: T19, KIT-autoinhibited (Homo sapiens, UniProt P10721); assay: KinomeScan; type: binding; details: 1uM
T19 construct: purchased DiscoveRx KINOMEscan

MAP4K5 = target: T20, MAP4K5 (Homo sapiens, UniProt Q9Y4K4); assay: KinomeScan; type: binding; details: 1uM
T20 construct: purchased DiscoveRx KINOMEscan

MARK2 = target: T21, MARK2 (Homo sapiens, UniProt Q7KZI7); assay: KinomeScan; type: binding; details: 1uM
T21 construct: purchased DiscoveRx KINOMEscan

MARK3 = target: T22, MARK3 (Homo sapiens, UniProt P27448); assay: KinomeScan; type: binding; details: 1uM
T22 construct: purchased DiscoveRx KINOMEscan

MEK4 = target: T23, MEK4 (Homo sapiens, UniProt P45985); assay: KinomeScan; type: binding; details: 1uM
T23 construct: purchased DiscoveRx KINOMEscan

MYLK = target: T24, MYLK (Homo sapiens, UniProt Q15746); assay: KinomeScan; type: binding; details: 1uM
T24 construct: purchased DiscoveRx KINOMEscan

MYO3A = target: T25, MYO3A (Homo sapiens, UniProt Q8NEV4); assay: KinomeScan; type: binding; details: 1uM
T25 construct: purchased DiscoveRx KINOMEscan

NEK7 = target: T26, NEK7 (Homo sapiens, UniProt Q8TDX7); assay: KinomeScan; type: binding; details: 1uM
T26 construct: purchased DiscoveRx KINOMEscan

PCTK1 = target: T27, PCTK1 (Homo sapiens, UniProt Q00536); assay: KinomeScan; type: binding; details: 1uM
T27 construct: purchased DiscoveRx KINOMEscan

PCTK2 = target: T28, PCTK2 (Homo sapiens, UniProt Q00537); assay: KinomeScan; type: binding; details: 1uM
T28 construct: purchased DiscoveRx KINOMEscan

PFTK1 = target: T29, PFTK1 (Homo sapiens, UniProt O94921); assay: KinomeScan; type: binding; details: 1uM
T29 construct: purchased DiscoveRx KINOMEscan

PIK3CA = target: T30, PIK3CA (Homo sapiens, UniProt P42336); assay: KinomeScan; type: binding; details: 1uM
T30 construct: purchased DiscoveRx KINOMEscan

PIP5K2B = target: T31, PIP5K2B (Homo sapiens, UniProt P78356); assay: KinomeScan; type: binding; details: 1uM
T31 construct: purchased DiscoveRx KINOMEscan

PIP5K2C = target: T32, PIP5K2C (Homo sapiens, UniProt Q8TBX8); assay: KinomeScan; type: binding; details: 1uM
T32 construct: purchased DiscoveRx KINOMEscan

PRKCH = target: T33, PRKCH (Homo sapiens, UniProt P24723); assay: KinomeScan; type: binding; details: 1uM
T33 construct: purchased DiscoveRx KINOMEscan

RIOK1 = target: T34, RIOK1 (Homo sapiens, UniProt Q9BRS2); assay: KinomeScan; type: binding; details: 1uM
T34 construct: purchased DiscoveRx KINOMEscan

RIOK3 = target: T35, RIOK3 (Homo sapiens, UniProt O14730); assay: KinomeScan; type: binding; details: 1uM
T35 construct: purchased DiscoveRx KINOMEscan

RIPK1 = target: T36, RIPK1 (Homo sapiens, UniProt Q13546); assay: KinomeScan; type: binding; details: 1uM
T36 construct: purchased DiscoveRx KINOMEscan

RIPK5 = target: T37, RIPK5 (Homo sapiens, UniProt Q6XUX3); assay: KinomeScan; type: binding; details: 1uM
T37 construct: purchased DiscoveRx KINOMEscan

[1] = target: T38, RSK4(Kin.Dom.1-N-terminal) (Homo sapiens, UniProt Q9UK32); assay: KinomeScan; type: binding; details: 1uM
T38 construct: RSK4(Kin.Dom.1-N-terminal); purchased DiscoveRx KINOMEscan

S6K1 = target: T39, S6K1 (Homo sapiens, UniProt P23443); assay: KinomeScan; type: binding; details: 1uM
T39 construct: purchased DiscoveRx KINOMEscan

SGK3 = target: T40, SGK3 (Homo sapiens, UniProt Q96BR1); assay: KinomeScan; type: binding; details: 1uM
T40 construct: purchased DiscoveRx KINOMEscan

SRPK1 = target: T41, SRPK1 (Homo sapiens, UniProt Q96SB4); assay: KinomeScan; type: binding; details: 1uM
T41 construct: purchased DiscoveRx KINOMEscan

STK16 = target: T42, STK16 (Homo sapiens, UniProt O75716); assay: KinomeScan; type: binding; details: 1uM
T42 construct: purchased DiscoveRx KINOMEscan

TNNI3K = target: T43, TNNI3K (Homo sapiens, UniProt Q59H18); assay: KinomeScan; type: binding; details: 1uM
T43 construct: purchased DiscoveRx KINOMEscan

PARP cleavage = assay: Apoptosis (western-blot); type: cell-based, human; details: within 12 hours
Text: Then, apoptosis of MOLM13, HT, MEC-1 cells were detected by western-blot using PARP, GAPDH antibody (CST).

T19 sequence (P10721 26-976): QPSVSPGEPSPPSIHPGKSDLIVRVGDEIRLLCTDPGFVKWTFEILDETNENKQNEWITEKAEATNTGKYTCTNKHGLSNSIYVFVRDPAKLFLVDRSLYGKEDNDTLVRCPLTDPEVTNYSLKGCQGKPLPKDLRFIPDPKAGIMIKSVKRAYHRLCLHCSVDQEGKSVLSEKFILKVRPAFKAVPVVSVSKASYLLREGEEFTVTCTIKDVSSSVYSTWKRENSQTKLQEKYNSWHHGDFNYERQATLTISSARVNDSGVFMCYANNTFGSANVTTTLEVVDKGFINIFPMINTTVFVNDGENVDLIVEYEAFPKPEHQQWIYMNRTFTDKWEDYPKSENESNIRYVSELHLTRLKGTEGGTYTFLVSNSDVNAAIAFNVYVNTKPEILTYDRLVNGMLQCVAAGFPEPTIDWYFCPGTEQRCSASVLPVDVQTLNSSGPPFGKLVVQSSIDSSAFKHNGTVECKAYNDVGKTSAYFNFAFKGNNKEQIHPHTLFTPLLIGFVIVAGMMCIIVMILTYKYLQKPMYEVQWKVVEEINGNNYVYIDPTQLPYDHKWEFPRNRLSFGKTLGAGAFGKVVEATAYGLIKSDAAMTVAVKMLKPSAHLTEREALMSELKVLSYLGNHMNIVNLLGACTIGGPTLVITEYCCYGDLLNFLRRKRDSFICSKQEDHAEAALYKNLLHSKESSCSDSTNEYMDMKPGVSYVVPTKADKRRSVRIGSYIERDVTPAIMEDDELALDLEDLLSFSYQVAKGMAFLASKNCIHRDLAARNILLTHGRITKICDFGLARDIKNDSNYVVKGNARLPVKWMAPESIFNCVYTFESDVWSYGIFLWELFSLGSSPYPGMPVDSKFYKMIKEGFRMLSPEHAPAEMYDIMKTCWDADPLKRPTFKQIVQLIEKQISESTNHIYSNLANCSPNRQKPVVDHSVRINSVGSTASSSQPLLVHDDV
T36 sequence (Q13546 whole entry): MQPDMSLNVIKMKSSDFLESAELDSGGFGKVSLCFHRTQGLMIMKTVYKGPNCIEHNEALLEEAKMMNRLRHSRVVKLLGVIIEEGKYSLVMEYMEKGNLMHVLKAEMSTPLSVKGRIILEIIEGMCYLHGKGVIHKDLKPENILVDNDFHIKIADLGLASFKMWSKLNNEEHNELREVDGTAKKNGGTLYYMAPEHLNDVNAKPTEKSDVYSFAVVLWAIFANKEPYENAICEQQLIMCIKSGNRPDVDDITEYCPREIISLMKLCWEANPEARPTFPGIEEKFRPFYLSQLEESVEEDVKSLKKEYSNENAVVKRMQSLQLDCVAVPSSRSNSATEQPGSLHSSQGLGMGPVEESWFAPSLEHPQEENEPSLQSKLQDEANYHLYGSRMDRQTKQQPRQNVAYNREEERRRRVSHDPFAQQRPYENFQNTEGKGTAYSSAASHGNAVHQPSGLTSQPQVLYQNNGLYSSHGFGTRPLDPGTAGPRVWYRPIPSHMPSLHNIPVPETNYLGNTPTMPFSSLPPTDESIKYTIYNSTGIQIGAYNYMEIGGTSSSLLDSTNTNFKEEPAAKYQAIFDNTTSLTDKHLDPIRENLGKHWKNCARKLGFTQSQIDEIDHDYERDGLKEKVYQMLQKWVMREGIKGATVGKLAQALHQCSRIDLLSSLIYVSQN
T9 sequence (P49336 whole entry): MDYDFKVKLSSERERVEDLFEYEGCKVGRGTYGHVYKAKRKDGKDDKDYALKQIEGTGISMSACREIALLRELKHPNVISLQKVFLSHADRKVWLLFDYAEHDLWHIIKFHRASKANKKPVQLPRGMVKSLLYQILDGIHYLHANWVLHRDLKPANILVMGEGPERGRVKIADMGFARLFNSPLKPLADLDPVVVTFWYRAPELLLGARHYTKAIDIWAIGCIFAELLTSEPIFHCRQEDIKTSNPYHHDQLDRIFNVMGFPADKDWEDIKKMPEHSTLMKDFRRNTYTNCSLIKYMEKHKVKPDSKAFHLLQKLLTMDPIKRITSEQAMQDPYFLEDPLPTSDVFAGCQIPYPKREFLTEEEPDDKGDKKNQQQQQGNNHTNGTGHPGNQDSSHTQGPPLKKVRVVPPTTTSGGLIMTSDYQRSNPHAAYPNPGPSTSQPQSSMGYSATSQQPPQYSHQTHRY
T38 sequence (Q9UK32 1-400 limits assumed): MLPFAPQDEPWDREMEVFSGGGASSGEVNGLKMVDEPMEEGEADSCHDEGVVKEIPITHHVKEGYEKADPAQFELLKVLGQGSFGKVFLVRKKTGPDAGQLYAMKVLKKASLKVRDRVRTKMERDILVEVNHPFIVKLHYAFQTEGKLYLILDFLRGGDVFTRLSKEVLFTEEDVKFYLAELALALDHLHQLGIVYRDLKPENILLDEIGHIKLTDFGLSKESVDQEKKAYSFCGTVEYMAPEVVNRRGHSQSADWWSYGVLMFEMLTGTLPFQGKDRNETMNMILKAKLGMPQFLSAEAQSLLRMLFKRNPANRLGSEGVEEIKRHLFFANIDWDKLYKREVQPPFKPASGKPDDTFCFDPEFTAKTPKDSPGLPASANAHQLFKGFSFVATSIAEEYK
T31 sequence (P78356 whole entry): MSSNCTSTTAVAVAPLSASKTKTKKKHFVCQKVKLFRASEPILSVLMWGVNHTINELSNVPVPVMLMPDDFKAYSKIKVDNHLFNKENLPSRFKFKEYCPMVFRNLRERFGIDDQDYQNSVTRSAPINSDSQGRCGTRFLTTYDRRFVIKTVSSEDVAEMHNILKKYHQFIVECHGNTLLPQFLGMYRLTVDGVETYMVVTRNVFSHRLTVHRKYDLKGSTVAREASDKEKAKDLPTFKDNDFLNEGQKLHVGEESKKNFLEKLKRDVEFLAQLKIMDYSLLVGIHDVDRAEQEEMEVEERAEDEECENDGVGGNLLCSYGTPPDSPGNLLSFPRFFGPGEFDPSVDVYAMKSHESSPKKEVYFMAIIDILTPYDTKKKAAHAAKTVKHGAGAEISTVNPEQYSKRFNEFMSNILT
T12 sequence (Q9HAZ1 whole entry): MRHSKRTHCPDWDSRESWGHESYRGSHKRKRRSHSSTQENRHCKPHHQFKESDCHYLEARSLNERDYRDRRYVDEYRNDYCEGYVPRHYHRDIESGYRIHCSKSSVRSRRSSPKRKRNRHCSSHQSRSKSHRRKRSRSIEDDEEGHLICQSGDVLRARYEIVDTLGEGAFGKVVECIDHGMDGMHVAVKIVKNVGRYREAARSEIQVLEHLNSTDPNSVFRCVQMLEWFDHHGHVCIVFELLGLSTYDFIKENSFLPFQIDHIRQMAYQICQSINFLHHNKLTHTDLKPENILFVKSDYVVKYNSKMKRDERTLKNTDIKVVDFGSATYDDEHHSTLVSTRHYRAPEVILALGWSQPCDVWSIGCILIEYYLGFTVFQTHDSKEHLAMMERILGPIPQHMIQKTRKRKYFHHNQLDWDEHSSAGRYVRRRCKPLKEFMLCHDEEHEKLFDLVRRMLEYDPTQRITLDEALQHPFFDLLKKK
T30 sequence (P42336 whole entry): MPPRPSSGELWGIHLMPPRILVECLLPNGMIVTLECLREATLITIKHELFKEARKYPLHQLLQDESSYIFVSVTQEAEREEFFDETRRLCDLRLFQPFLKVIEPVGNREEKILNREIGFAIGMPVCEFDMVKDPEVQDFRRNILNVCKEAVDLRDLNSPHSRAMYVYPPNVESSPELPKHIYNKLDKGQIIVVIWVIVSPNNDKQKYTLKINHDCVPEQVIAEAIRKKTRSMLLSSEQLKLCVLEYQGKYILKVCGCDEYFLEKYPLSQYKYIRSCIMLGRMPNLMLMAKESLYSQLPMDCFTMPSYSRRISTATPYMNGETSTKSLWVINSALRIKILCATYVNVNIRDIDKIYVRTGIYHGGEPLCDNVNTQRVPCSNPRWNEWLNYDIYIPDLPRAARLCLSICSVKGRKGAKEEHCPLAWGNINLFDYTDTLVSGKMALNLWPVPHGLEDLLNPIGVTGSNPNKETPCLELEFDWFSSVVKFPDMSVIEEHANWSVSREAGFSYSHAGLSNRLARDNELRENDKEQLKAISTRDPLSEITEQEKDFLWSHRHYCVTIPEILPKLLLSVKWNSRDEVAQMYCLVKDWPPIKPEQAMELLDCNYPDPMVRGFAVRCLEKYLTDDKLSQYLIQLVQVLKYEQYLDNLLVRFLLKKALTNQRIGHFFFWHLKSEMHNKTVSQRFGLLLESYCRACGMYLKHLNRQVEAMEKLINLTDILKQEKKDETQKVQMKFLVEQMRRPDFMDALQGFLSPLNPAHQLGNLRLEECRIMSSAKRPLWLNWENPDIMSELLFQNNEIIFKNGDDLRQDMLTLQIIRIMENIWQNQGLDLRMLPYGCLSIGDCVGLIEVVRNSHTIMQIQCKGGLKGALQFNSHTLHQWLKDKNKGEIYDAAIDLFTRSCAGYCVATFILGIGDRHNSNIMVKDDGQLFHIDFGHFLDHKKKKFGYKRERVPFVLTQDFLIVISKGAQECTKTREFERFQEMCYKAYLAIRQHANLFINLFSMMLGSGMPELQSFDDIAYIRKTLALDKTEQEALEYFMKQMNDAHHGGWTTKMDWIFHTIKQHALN
T3 sequence (P54646 whole entry): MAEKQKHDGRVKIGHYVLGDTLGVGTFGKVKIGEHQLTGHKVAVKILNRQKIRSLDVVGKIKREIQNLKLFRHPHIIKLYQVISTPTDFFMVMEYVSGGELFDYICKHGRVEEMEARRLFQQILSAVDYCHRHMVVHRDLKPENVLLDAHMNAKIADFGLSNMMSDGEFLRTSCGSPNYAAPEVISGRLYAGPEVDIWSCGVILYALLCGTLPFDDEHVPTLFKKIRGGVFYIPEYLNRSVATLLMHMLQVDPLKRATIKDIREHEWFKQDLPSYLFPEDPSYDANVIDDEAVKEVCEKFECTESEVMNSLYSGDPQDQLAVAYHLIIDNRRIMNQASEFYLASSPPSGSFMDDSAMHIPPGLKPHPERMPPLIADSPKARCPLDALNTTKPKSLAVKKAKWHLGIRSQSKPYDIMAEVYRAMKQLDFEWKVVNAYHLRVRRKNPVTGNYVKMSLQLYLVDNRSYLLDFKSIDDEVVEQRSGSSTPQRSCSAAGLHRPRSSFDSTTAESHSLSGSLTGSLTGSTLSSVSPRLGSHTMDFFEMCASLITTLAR
T18 sequence (P10721 26-976 D816V): as the sequence (P10721 26-976) above, with D791V counted along it

Cc1nc(NC(=O)[C@@H](N)C(C)C)sc1-c1cnc(Cl)c(NS(=O)(=O)c2ccccc2)c1 [PI3KD-IN-015]
83: KinomeScan RIPK5 (RIPK5)
7.2: KinomeScan PIK3CA (PIK3CA)
77: KinomeScan AURKC (AURKC)
90: KinomeScan PIP5K2C (PIP5K2C)
89: KinomeScan FLT1 (FLT1)
apparent PARP cleavage: PARP cleavage (apoptosis) (PARP cleavage; MOLM-13 cell (AML), HT cell (B-NHL))
100: KinomeScan AAK1 (AAK1) | KinomeScan AMPK-alpha2 (AMPK-alpha2) | KinomeScan BRSK1 (BRSK1) | KinomeScan BUB1 (BUB1) | KinomeScan CDK8 (CDK8) | KinomeScan CHEK1 (CHEK1) | KinomeScan CLK1 (CLK1) | KinomeScan CLK4 (CLK4) | KinomeScan DCAMKL3 (DCAMKL3) | KinomeScan FGFR3 (FGFR3) | KinomeScan JNK1 (JNK1) | KinomeScan KIT(D816V) (KIT(D816V)) | KinomeScan KIT-autoinhibited (KIT-autoinhibited) | KinomeScan MAP4K5 (MAP4K5) | KinomeScan MARK3 (MARK3) | KinomeScan MEK4 (MEK4) | KinomeScan NEK7 (NEK7) | KinomeScan PCTK2 (PCTK2) | KinomeScan PFTK1 (PFTK1) | KinomeScan PIP5K2B (PIP5K2B) | KinomeScan PRKCH (PRKCH) | KinomeScan RIPK1 (RIPK1) | KinomeScan RSK4(Kin.Dom.1-N-terminal) [1] | KinomeScan S6K1 (S6K1)
96: KinomeScan RIOK3 (RIOK3)
98: KinomeScan CAMK1 (CAMK1)
94: KinomeScan MYLK (MYLK) | KinomeScan MYO3A (MYO3A) | KinomeScan RIOK1 (RIOK1)
93: KinomeScan PCTK1 (PCTK1) | KinomeScan SRPK1 (SRPK1)
only weakly: PARP cleavage (apoptosis) (PARP cleavage; MEC-1 cell (CLL))
95: KinomeScan ADCK4 (ADCK4) | KinomeScan CASK (CASK) | KinomeScan MARK2 (MARK2) | KinomeScan TNNI3K (TNNI3K)
97: KinomeScan FRK (FRK)
91: KinomeScan SGK3 (SGK3) | KinomeScan STK16 (STK16)
